# Experimental data published in US20250388550A1, “SALTS OF AN ANTIOXIDANT AND CRYSTALLINE FORMS THEREOF” (Mironova Labs, Inc., priority 2022, published 2025).
# What was measured:
# [1] = Competitive water activity trituration experiments at room temperature; format: physicochemical
# Excerpt: Water activity is related to relative humidity in that RH %=aw×100. Therefore, it is possible to directly relate the stability of an anhydrous/hydrate system in slurry experiments to solid state stability.
# (§1) The effect of relative humidity (RH) and water activity (aw) on the hydration state of L-Ergothioneine was investigated through both static exposure to different relative humidity (Table 17 and Table 18) and competitive water activity trituration experiments at room temperature (Table 20). The resulting solids were characterized by XRPD. These experiments were used to establish the relative humidity ranges for form stability of the thermodynamically stable anhydrate Form A and Form B Dihydrate. The critical water activity between the anhydrate and the dihydrate falls between 0.76 and 0.85 aw. This range is consistent with the DVS isotherms for both Forms A and C Anhydrate.
# [2] = Slurry interconversion experiments of Forms A and C; format: physicochemical; conditions: for Interconversion result (form): EtOH, 75° C.; for Relative thermodynamic stability of the anhydrate forms: Form A versus Form C, at the temperatures evaluated
# Method: The choice of solvent affects the kinetics of polymorph conversion and not the thermodynamic relationship between polymorphic forms (Gu, CH., Young, V. Jr., Grant, DJ. J. Pharm. Sci 2001; 90 (11): 1878-1890).
# Slurry interconversion experiments in ethanol (at 75° C.) and methanol (at room temperature) were still attempted to confirm the thermodynamic relationship between Forms A and C (Table 18).
# [3] = DVS moisture sorption/desorption isotherm; format: physicochemical
# Method: Moisture sorption/desorption data were collected on a VTI SGA-100 Vapor Sorption Analyzer. Samples were not dried prior to analysis. Sorption and desorption data were collected over a range from 5% to 95% RH at 10% RH increments under a dry air purge. The equilibrium criterion used for analysis was less than 0.0100% weight change in 5 minutes with a maximum equilibration time of 3 hours with a 2-minute data logging interval. Data were not corrected for the initial moisture content of the samples.
# [4] = Physical stability assessment at controlled relative humidity, form by XRPD; format: physicochemical; conditions: RT, 22 days
# Excerpt: Consistent with the DVS result, the critical water activity between the anhydrate and the dihydrate was tentatively determined to fall between 0.76 and 0.85 aw, above which hydration to Form B Dihydrate will occur. This is also consistent with the physical stability assessment at 33, 75, and 95% RH for 22 days; Form A Anhydrate remained Form A below the critical water activity, while hydration to Form B Dihydrate occurred above (Table 16).
# as §1
# [5] = Trituration of Form C in aqueous methanol below the critical water activity; format: physicochemical; conditions: 10:90 water/MeOH, aw 0.29, RT, 5 d
# Method: Although the dihydrate of L-Ergothioneine can form in the presence of water, aqueous methanol mixtures were utilized to enhance solubility. To avoid the dihydrate, the aqueous mixtures were prepared below the critical water activity of its formation. Form C was triturated in the aqueous mixtures and monitored for conversion to Form A by XRPD after 5 days (Table 19).
# [6] = Hygroscopicity inferred from TGA weight loss; format: physicochemical; conditions: weight loss likely volatilization of moisture
# Method: Thermogravimetric (TG) analyses were performed using a Mettler-Toledo TGA/DSC3+ analyzer. Temperature and enthalpy adjustments were performed using indium, tin, and zinc, and then verified with indium. The balance was verified with calcium oxalate. The sample was placed in an aluminum pan. The pan was hermetically sealed, the lid pierced, and the pan was then inserted into the TG furnace. A weighed aluminum pan configured as the sample pan was placed on the reference platform. The furnace was heated under nitrogen. Samples were analyzed from 25° C. to 350° C. at 10° C./min. Thermogravimetric analyses typically experience a period of equilibration at the start of each analysis, indicated by red parentheses on the thermograms. The starting temperature for relevant weight loss calculations is selected at a point beyond this region (typically above 35° C.) for accuracy. DSC analysis on this instrument is less sensitive than on the DSC3+ differential scanning calorimeter. Therefore, in certain embodiments, samples with sufficient solids were analyzed by both instruments and the TGA thermogram from Mettler-Toledo TGA/DSC3+ analyzer is reported below.
# The final endotherm with an onset of 234° C. is likely from concomitant melt and decomposition.
# Thermal decomposition (FIG. 20), which caused the material to expand out of the pan, was evident above this temperature.
# physchem = format: physicochemical; conditions: 60 °C, organic solvent or mixture
# Method: The approximate solubility of the L-Ergothioneine Form A/B mixture in various solvents was determined (Table 2).
# [7] = Excerpt: It cannot be predicted in advance whether a compound exists in one or more solid forms, or whether the properties of the solid form are advantageous for manufacturing and pharmaceutical formulation.
# [8] = Observation of isolated solid on removal from nitrogen stream; format: physicochemical; conditions: upon removal from the nitrogen stream
# Method: L-Ergothioneine calcium chloride Material A was obtained by heating a slurry of 173.9 mg of L-Ergothioneine Form A/B in 1 mL of water to 65° C. A faint turbid solution was afforded with the addition of 110.5 mg of calcium chloride to the slurry. The sample was refrigerated for 3 days and became clear. The clear solution was evaporated to dryness under nitrogen.
compound,measurement,setting,value
"C[N+](C)(C)C(Cc1cnc(S)[nH]1)C(=O)[O-] [Forms A and C, L-Ergothioneine]",Water activity experiment result (form),"[1]; 15:85 water/MeOH, aw 0.39, RT, 8 d",B + A + C + anotherform
same,Water activity experiment result (form),"[1]; 20:80 water/MeOH, aw 0.47, RT, 8 d",B + A + C
same,Water activity experiment result (form),"[1]; 20:80 water/MeOH, aw 0.47, RT, 14 d",A + B
same,Water activity experiment result (form),"[1]; 70:30 water/MeOH, aw 0.86, RT, 13 d",B (PO)
same,Water activity experiment result (form),"[1]; solvent, aw and method cells empty, lines below 50:50 water/MeOH, aw 0.76",A + B + anotherform
same,Interconversion result (form),[2]; 14 days,A + C
same,Interconversion result (form),[2]; 28 days,A + C (minor)
"C[N+](C)(C)C(Cc1cnc(S)[nH]1)C(=O)[O-] [L-Ergothioneine Form A Anhydrate, L-Ergothioneine, reference compound]",Relative thermodynamic stability of the anhydrate forms,[2]; listed as Form A,more thermodynamically stable form
same,Hygroscopicity (DVS),[3]; above 85% RH,significant hygroscopicity
same,Hygroscopicity (DVS),"[3]; from 5 to 85% RH, listed as Form A",low hygroscopicity
"C[N+](C)(C)C(Cc1cnc(S)[nH]1)C(=O)[O-] [L-Ergothioneine Form B Dihydrate, L-Ergothioneine]","Physical stability, resulting form",[4]; 33% RH,partially dehydrate to a small quantity of both Forms A and C Anhydrates
same,"Physical stability, resulting form","[4]; 75% RH, listed as Form B Dihydrate",sustained
same,"Physical stability, resulting form","[4]; 95% RH, listed as Form B Dihydrate",sustained
"C[N+](C)(C)C(Cc1cnc(S)[nH]1)C(=O)[O-] [L-Ergothioneine Form C Anhydrate, L-Ergothioneine]","Physical stability, resulting form",[4]; 75% RH,Form C
same,"Physical stability, resulting form",[4]; 95% RH,Form B
same,Relative thermodynamic stability of the anhydrate forms,[2]; listed as Form C Anhydrate,thermodynamically metastable relative to Form A
same,Trituration result (form by XRPD),[5],A + C (minor)
same,Weight loss upon equilibration,[3]; at 5% RH,0.3 wt %
same,Water gain equivalent,[3]; at 95% RH,more than 1.5 mol/mol
same,Weight gain during sorption cycle,"[3]; at 95% RH, equilibrium not achieved",more than 10.9 wt %
same,Hygroscopicity (DVS),"[3]; from 5 to 85% RH, listed as Form C",limited hygroscopicity
same,"Complete desorption, equivalent loss of water",[3]; once reaching 5% RH,1 mol/mol
same,Recovered material after DVS by XRPD,[3]; post-DVS,"mixture of Form C Anhydrate, Form B Dihydrate, and another form"
same,Weight loss on desorption cycle,[3]; until reaching 75% RH,5.5 wt %
same,Weight gain during sorption cycle,[3]; up through 85% RH,approximately 0.9 wt %
"C[N+](C)(C)C(Cc1c[nH]c(=S)[nH]1)C(=O)O.O=S(=O)([O-])O [L-Ergothioneine Sulfate Form A, L-Ergothioneine sulfate]",Hygroscopicity suggested by TGA weight loss,[6],hygroscopic
"C[N+](C)(C)C(Cc1cnc(S)[nH]1)C(=O)[O-] [L-Ergothioneine mixture, L-Ergothioneine]",solubility,physchem,< 2000 µg/mL
C[N+](C)(C)C(Cc1cnc(S)[nH]1)C(=O)[O-] [L-Ergothioneine phosphoric acid],Hygroscopicity suggested by TGA weight loss,[6],hygroscopic
same,Solubility in polar protic solvents,[7],low solubility
L-Ergothioneine calcium chloride,Deliquescence,[8],appeared to deliquesce
